Experiment [1] concerns the target T1, PRMT5 (Homo sapiens, UniProt O14744).
T1 construct: purchased Viva (custom protein)
The experiment can be described thus: PRMT5 biochemical IC50 assay with no cofactor. Conditions: PRMT5, no cofactor; read-out: No Cofactor/rel IC50. The source says: Table 1 indicates IC50 values (μM) against PRMT5 for exemplary compounds in the presence of SAM as cofactor, with no cofactor, and with MTA as cofactor, respectively (columns 4-6). […] Ki values can be calculated from the IC50 values as described in the Examples section. As detailed in the Examples section, for the assay performed in the presence of SAM, IC50=Ki×1.5 (Ki=IC50/1.5).

Experiment [2] has as its system HAP1 MTAP-intact cell line. The experiment can be described thus: SDMA in-cell western assay, HAP1 MTAP-intact. It counts as cell-based. Conditions: Homo sapiens, HAP1, SDMA in-cell western, HAP1 MTAP-intact; read-out: MTAP HAP1 intact IC50. The essentials: (§1)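 Compounds were tested in HAP1 cells differing only in MTAP status (endogenous expression versus null). Cellular SDMA levels were then measured by in-cell western, giving an IC50 in each background.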

The target in experiment [3] is T1, PRMT5. The experiment can be described thus: PRMT5 biochemical IC50 assay with SAM as cofactor. Conditions: PRMT5, SAM as cofactor; read-out: SAM IC50.
In experiment [4] the target is T1, PRMT5. The experiment can be described thus: PRMT5 biochemical IC50 assay with MTA as cofactor. Conditions: PRMT5, MTA as cofactor; read-out: MTA IC50.
Experiment [5] has as its system HAP1 MTAP-deleted cell line. The experiment can be described thus: Viability assay, MTAP-deleted cell line. In kind it is cell-based. Conditions: Homo sapiens, read-out: HAP1 MTAP deleted viability. An excerpt: Table 1 additionally indicates IC50 values in a viability assay for the MTAP-deleted cell line (column 10), indicating the effect of treatment with compound on cell survival.

The subject of experiment [6] is HAP1 MTAP-deleted cell line. The experiment can be described thus: SDMA in-cell western assay, HAP1 MTAP-deleted. In kind it is cell-based. Conditions: for IC50: Homo sapiens, HAP1, SDMA in-cell western, HAP1 MTAP-deleted; for MTAP intact/deleted ratio: IC50 ratio HAP1 MTAP-intact / HAP1 MTAP-deleted, SDMA in-cell western. In short, it runs like this:
as §1

Setting [7] is: HAP1, viability IC50, MTAP-deleted cell line.
The mark [8] stands for this setting: read-out: HAP 1 MTAP deleted IC50.
The mark [9] stands for this setting: HAP1, viability assay, HAP1 MTAP-deleted.
The mark [10] stands for this setting: read-out: HAP1 MTAP deleted IC50.

T1 sequence (O14744 whole entry): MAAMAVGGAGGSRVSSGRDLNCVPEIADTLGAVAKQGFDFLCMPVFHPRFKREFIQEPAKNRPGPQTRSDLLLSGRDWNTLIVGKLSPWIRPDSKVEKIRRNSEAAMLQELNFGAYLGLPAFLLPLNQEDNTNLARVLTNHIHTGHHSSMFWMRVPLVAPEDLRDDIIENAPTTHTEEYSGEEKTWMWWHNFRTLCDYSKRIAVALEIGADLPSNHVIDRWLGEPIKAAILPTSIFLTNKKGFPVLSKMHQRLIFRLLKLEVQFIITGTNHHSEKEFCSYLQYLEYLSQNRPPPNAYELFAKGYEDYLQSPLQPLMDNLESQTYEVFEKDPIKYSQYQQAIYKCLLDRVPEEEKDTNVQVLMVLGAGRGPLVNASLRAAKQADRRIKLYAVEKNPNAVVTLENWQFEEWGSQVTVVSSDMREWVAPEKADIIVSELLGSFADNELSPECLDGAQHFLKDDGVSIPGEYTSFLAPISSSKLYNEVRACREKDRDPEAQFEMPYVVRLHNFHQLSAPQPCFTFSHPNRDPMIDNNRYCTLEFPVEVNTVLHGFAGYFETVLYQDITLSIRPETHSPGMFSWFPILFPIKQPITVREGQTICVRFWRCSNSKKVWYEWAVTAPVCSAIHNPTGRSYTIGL
T1 sequence (Q9BQA1 whole entry partner): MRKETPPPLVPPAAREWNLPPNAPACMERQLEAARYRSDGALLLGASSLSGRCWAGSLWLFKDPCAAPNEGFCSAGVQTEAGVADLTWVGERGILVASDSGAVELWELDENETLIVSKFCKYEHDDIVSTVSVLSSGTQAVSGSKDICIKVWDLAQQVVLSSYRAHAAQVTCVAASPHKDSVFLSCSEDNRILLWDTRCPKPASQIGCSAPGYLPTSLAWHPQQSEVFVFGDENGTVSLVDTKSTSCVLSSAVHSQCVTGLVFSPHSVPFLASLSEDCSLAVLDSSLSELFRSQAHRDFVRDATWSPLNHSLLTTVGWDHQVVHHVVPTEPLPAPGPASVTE

Take `Cc1nc2cc([C@@H]3CC[C@@H](C)CN3C(=O)C(=O)Nc3cncc(C(N)=O)c3)ccc2s1` (single isomer, unassigned) [Compound 693]: the IC50 on PRMT5 [1] is below 50 nM; in experiment [2] it was 100 to 1000 nM; on PRMT5 [3], 50 to 500 nM; at PRMT5 [4] it was below 50 nM; in experiment [5] (setting [7]) it was below 1000 nM; in experiment [6] (setting [8]), below 100 nM. The MTAP intact/deleted ratio entry in experiment [6] is recorded as “A (an IC50 ratio greater than or equal to 10 fold)”.
Take `CCc1cc(NC(=O)C(=O)N2C[C@@H](C)CC[C@@H]2c2ccc3c(c2)CNC3=O)cnc1N` (single isomer, unassigned) [Compound 696, N-(6-amino-5-ethylpyridin-3-yl)-2-(5-methyl-2-(1-oxoisoindolin-5-yl)piperidin-1-yl)-2-oxoacetamide]: the IC50 is below 50 nM on PRMT5 [1]; above 1000 nM in experiment [2]; 50 to 500 nM at PRMT5 [3]; below 50 nM at PRMT5 [4]; 1000 to 10000 nM in experiment [5] (setting [7]); below 100 nM in experiment [6] (setting [8]). In addition, the MTAP intact/deleted ratio entry in experiment [6] is listed as “A (an IC50 ratio greater than or equal to 10 fold)”.
As to `Cc1ncc(NC(=O)C(=O)N2C[C@H](C)CC[C@H]2c2ccc3c(c2)CCC(=O)N3)cc1C(F)(F)F` (single isomer, unassigned) [Compound 697], the IC50 at PRMT5 [1] was below 50 nM; in experiment [2] it was above 1000 nM; on PRMT5 [3], 50 to 500 nM; at PRMT5 [4], below 50 nM; in experiment [5] (setting [7]) it was below 1000 nM; in experiment [6] (setting [8]), below 100 nM. Also, in experiment [6], the MTAP intact/deleted ratio entry is reported as “A (an IC50 ratio greater than or equal to 10 fold)”.
Consider `CCc1cc(NC(=O)C(=O)N2C[C@@H](C)CC[C@@H]2c2ccc3c(c2)C(=O)NC3)cnc1N` (single isomer, unassigned) [Compound 700], for which the IC50 is below 50 nM at PRMT5 [1]; above 1000 nM in experiment [2]; 50 to 500 nM on PRMT5 [3]; below 50 nM at PRMT5 [4]; below 1000 nM in experiment [5] (setting [7]); below 100 nM in experiment [6] (setting [8]). The MTAP intact/deleted ratio entry in experiment [6] is “A (an IC50 ratio greater than or equal to 10 fold)”.
Take `Cc1nc2cc([C@H]3CC[C@H](C)CN3C(=O)C(=O)Nc3cncc(C(N)=O)c3)ccc2s1` (single isomer, unassigned) [Compound 702]: the IC50 was above 500 nM at PRMT5 [1]; above 1000 nM in experiment [2]; above 500 nM at PRMT5 [3]; above 500 nM at PRMT5 [4]; above 10000 nM in experiment [5] (setting [7]); above 1000 nM in experiment [6] (setting [8]). Further, the MTAP intact/deleted ratio entry in experiment [6] is listed as “B (an IC50 ratio greater than or equal to 3 fold but lower than 10 fold)”.
Consider `Cc1cc(NC(=O)C(=O)N2C[C@@H](C)CC[C@@H]2c2ccc(C(F)(F)F)c(Cl)c2)cnc1N` (single isomer, unassigned) [Compound 703], for which the IC50 on PRMT5 [1] was 50 to 500 nM; in experiment [2], 100 to 1000 nM; at PRMT5 [3], 50 to 500 nM; at PRMT5 [4], below 50 nM; in experiment [5] (setting [7]), 1000 to 10000 nM; in experiment [6] (setting [8]), 100 to 1000 nM. For the same compound, the MTAP intact/deleted ratio result in experiment [6] is “C (an IC50 ratio of less than 3 fold)”.
As to `CC(=O)Nc1ccc([C@@H]2CC[C@@H](C)CN2C(=O)C(=O)Nc2cncc(C(N)=O)c2)s1` (single isomer, unassigned) [Compound 704], the IC50 at PRMT5 [1] is 50 to 500 nM; in experiment [2], above 1000 nM; at PRMT5 [3], above 500 nM; on PRMT5 [4], below 50 nM; in experiment [5] (setting [7]), above 10000 nM; in experiment [6] (setting [8]), above 1000 nM. Further, in experiment [6], the MTAP intact/deleted ratio result was “C (an IC50 ratio of less than 3 fold)”.
For `Cc1cc(NC(=O)C(=O)N2C[C@@H](C)C(F)(F)C[C@@H]2c2ccc(F)c(F)c2)cnc1N` (single isomer, unassigned) [Compound 705], the IC50 on PRMT5 [1] is below 50 nM; in experiment [2], 100 to 1000 nM; at PRMT5 [3], 50 to 500 nM; on PRMT5 [4] it was below 50 nM; in experiment [5] (setting [9]), below 1000 nM; in experiment [6] (setting [10]) it was below 100 nM. Also, the MTAP intact/deleted ratio entry in experiment [6] is “B (an IC50 ratio greater than or equal to 3 fold but lower than 10 fold)”.
Take `C[C@@H]1CN(C(=O)C(=O)Nc2cncc(C(N)=O)c2)[C@@H](c2ccc(F)c(F)c2)CC1(F)F` (single isomer, unassigned) [Compound 706]: the IC50 on PRMT5 [1] was above 500 nM; in experiment [2], above 1000 nM; on PRMT5 [3] it was above 500 nM; at PRMT5 [4], above 500 nM; in experiment [5] (setting [9]) it was above 10000 nM; in experiment [6] (setting [10]), above 1000 nM. Also, the MTAP intact/deleted ratio entry in experiment [6] is reported as “B (an IC50 ratio greater than or equal to 3 fold but lower than 10 fold)”.
On to `Cc1ccc([C@H]2CC[C@H](C)CN2C(=O)C(=O)Nc2cnc(N)c(C)c2)cn1` (single isomer, unassigned) [Compound 707], for which the IC50 at PRMT5 [1] is above 500 nM; in experiment [2], above 1000 nM; on PRMT5 [3], above 500 nM; at PRMT5 [4] it was above 500 nM; in experiment [5] (setting [9]), above 10000 nM; in experiment [6] (setting [10]), above 1000 nM. The MTAP intact/deleted ratio entry in experiment [6] is recorded as “B (an IC50 ratio greater than or equal to 3 fold but lower than 10 fold)”.
For `CCc1cc(NC(=O)C(=O)N2C[C@@H](C)CC[C@@H]2c2ccccc2)cnc1N` (single isomer, unassigned) [Compound 709], the IC50 on PRMT5 [1] is above 500 nM; in experiment [2] it was above 1000 nM; on PRMT5 [3], above 500 nM; on PRMT5 [4], 50 to 500 nM; in experiment [5] (setting [9]) it was above 10000 nM; in experiment [6] (setting [10]), above 1000 nM. Further, in experiment [6], the MTAP intact/deleted ratio entry was “C (an IC50 ratio of less than 3 fold)”.
As for `CC(=O)Nc1ccc([C@H]2CC[C@H](C)CN2C(=O)C(=O)Nc2cnc(N)c(C)c2)s1` (single isomer, unassigned) [Compound 717], the IC50 is above 500 nM at PRMT5 [1]; above 1000 nM in experiment [2]; above 500 nM on PRMT5 [3]; above 500 nM on PRMT5 [4]; above 10000 nM in experiment [5] (setting [9]); above 1000 nM in experiment [6] (setting [10]). For the same compound, the MTAP intact/deleted ratio entry in experiment [6] was “C (an IC50 ratio of less than 3 fold)”.
On to `C[C@@H]1CN(C(=O)C(=O)Nc2cncc(C(N)=O)c2)[C@@H](c2ccc(F)cc2)CC1(F)F` (single isomer, unassigned) [Compound 718], for which the IC50 was above 500 nM on PRMT5 [1]; above 1000 nM in experiment [2]; above 500 nM on PRMT5 [3]; above 500 nM on PRMT5 [4]; above 10000 nM in experiment [5] (setting [9]); above 1000 nM in experiment [6] (setting [10]). Besides, the MTAP intact/deleted ratio result in experiment [6] is given as “C (an IC50 ratio of less than 3 fold)”.
For `Cc1nc2cc([C@H]3CC[C@H](C)CN3C(=O)C(=O)Nc3cnc(N)c(C)c3)ccc2s1` (single isomer, unassigned) [Compound 719], the IC50 on PRMT5 [1] was below 50 nM; in experiment [2], 100 to 1000 nM; at PRMT5 [3], 50 to 500 nM; at PRMT5 [4] it was below 50 nM; in experiment [5] (setting [9]), below 1000 nM; in experiment [6] (setting [10]), below 100 nM. Further, the MTAP intact/deleted ratio entry in experiment [6] is “A (an IC50 ratio greater than or equal to 10 fold)”.
Take `CCc1cc(NC(=O)C(=O)N2C[C@H](C)CC[C@H]2c2ccc3c(c2)CCC(=O)N3)cnc1N` (single isomer, unassigned) [Compound 720]: the IC50 on PRMT5 [1] is below 50 nM; in experiment [2], 100 to 1000 nM; on PRMT5 [3] it was 50 to 500 nM; at PRMT5 [4], below 50 nM; in experiment [5] (setting [9]) it was below 1000 nM; in experiment [6] (setting [10]) it was below 100 nM. The MTAP intact/deleted ratio entry in experiment [6] was “A (an IC50 ratio greater than or equal to 10 fold)”.

The values are drawn from patent US11999727B2 (Tango Therapeutics, Inc., priority 2020, dated 2024).
